Assay results published in patent publication US10174016B2 (BAYER AKTIENGESELLSCHAFT, priority 2014, dated 2019).
Read-outs that look alike come from different tables or passages of the source.

How the values were obtained:
human P2X3 receptor = human P2X3 receptor (Homo sapiens (Human), UniProt P56373); assay: Intracellular calcium measurement (FLIPR, Fluo-4) of antagonist activity at human P2X3 receptors; type: cell-based; settings: read-out: hP2X3 IC50
In short: (§1)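 Antagonism quantified from peak calcium fluorescence (Fluo-4, FLIPR, 90 sec read) evoked by EC80 α,β-Me-ATP, after a 30 min, 37° C. compound pretreatment in 1% DMSO. Human P2X3- or P2X2/3-expressing cells used; triplicate means fitted for IC50, percent maximal inhibition and Hill coefficient.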

human P2X2/3 receptor = human P2X2/3 receptor (Homo sapiens (Human), UniProt P56373+Q9UBL9); assay: Intracellular calcium measurement (FLIPR, Fluo-4) of antagonist activity at human P2X2/3 receptors; type: cell-based; settings: human P2X2/3, FLIPR calcium assay, agonist α,β-Me-ATP; read-out: hP2X2/3 IC50
human P2X2/3 receptor, sequence (P56373 whole entry): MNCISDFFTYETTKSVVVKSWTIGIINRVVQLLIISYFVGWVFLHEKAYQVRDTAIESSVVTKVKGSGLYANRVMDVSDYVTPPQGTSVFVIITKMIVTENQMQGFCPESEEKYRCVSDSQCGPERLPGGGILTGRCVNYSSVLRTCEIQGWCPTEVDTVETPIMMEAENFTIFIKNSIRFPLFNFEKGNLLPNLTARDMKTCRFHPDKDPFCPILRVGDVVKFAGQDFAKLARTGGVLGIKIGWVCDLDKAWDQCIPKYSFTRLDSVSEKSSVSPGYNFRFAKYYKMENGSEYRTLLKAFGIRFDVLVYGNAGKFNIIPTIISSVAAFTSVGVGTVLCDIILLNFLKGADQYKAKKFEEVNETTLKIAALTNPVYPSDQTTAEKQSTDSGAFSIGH
human P2X2/3 receptor, sequence (Q9UBL9 whole entry): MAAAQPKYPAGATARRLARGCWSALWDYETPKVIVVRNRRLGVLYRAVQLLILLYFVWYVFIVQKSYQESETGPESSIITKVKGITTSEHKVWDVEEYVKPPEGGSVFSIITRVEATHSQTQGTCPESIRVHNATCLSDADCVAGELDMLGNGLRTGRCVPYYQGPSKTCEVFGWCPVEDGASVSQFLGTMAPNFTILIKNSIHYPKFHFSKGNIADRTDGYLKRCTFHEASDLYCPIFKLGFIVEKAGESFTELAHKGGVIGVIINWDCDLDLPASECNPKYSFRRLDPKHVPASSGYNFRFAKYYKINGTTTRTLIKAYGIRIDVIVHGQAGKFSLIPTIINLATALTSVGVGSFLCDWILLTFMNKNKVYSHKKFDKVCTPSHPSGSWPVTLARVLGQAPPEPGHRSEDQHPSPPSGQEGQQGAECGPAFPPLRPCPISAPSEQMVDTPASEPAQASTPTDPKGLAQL
In short: as §1

[1] = human P2X3, FLIPR calcium assay, agonist α,β-Me-ATP

human P2X3 receptor, sequence (P56373 whole entry): as the sequence (P56373 whole entry) above

Row | SMILES | IC50 (human P2X3 receptor; [1]) | IC50 (human P2X2/3 receptor) | IC50 (human P2X3 receptor)
1 | Cc1ccc([C@@H](C)NC(=O)c2cc(OC[C@H]3CCOC3)cc(-c3ncc(C(C)C)s3)c2)nn1 [Example 279, N-[(1R)-1-(6-methylpyridazin-3-yl)ethyl]-3-[5-(propan-2-yl)-1,3-thiazol-2-yl]-5-[(3S)-tetrahydrofuran-3-ylmethoxy]benzamide] | 115 nM | 956 nM | –
2 | CC(C)c1cnc(-c2cc(OC[C@H]3CCOC3)cc(C(=O)N[C@H](C)c3cnc(C(F)(F)F)nc3)c2)s1 [Example 281, 3-[5-(propan-2-yl)-1,3-thiazol-2-yl]-5-[(3S)-tetrahydrofuran-3-ylmethoxy]-N-{(1R)-1-[2-(trifluoromethyl)pyrimidin-5-yl]ethyl}benzamide] | – | 198 nM | 26 nM
3 | CCc1cnc(-c2cc(OC[C@@H]3CCCO3)cc(C(=O)N[C@H](C)c3cnc(C)cn3)c2)s1 [Example 283, 3-(5-ethyl-1,3-thiazol-2-yl)-N-[(1R)-1-(5-methylpyrazin-2-yl)ethyl]-5-[(2S)-tetrahydrofuran-2-ylmethoxy]benzamide] | – | 379 nM | 10 nM
4 | CCc1cnc(-c2cc(OC[C@@H]3CCCO3)cc(C(=O)N[C@H](C)c3cnc(C(F)(F)F)nc3)c2)s1 [Example 284, 3-(5-ethyl-1,3-thiazol-2-yl)-5-[(2S)-tetrahydrofuran-2-ylmethoxy]-N-{(1R)-1-[2-(trifluoromethyl)pyrimidin-5-yl]ethyl}benzamide] | 4 nM | 57 nM | –
5 | Cc1ccc([C@@H](C)NC(=O)c2cc(OC[C@@H]3CCCO3)cc(-c3ncc(C4CCC4)s3)c2)nn1 [Example 285, 3-(5-cyclobutyl-1,3-thiazol-2-yl)-N-[(1R)-1-(6-methylpyridazin-3-yl)ethyl]-5-[(2S)-tetrahydrofuran-2-ylmethoxy]benzamide] | 113 nM | 760 nM | –
6 | C[C@@H](NC(=O)c1cc(OC[C@@H]2CCCO2)cc(-c2ncc(C3CCC3)s2)c1)c1cnc(C(F)(F)F)nc1 [Example 287, 3-(5-cyclobutyl-1,3-thiazol-2-yl)-5-[(2S)-tetrahydrofuran-2-ylmethoxy]-N-{(1R)-1-[2-(trifluoromethyl)pyrimidin-5-yl]ethyl}benzamide] | 35 nM | 275 nM | –
7 | Cc1ccc([C@@H](C)NC(=O)c2cc(OC[C@@H]3CCCO3)cc(-c3ncc(C(C)C)s3)c2)nn1 [Example 288, N-[(1R)-1-(6-methylpyridazin-3-yl)ethyl]-3-[5-(propan-2-yl)-1,3-thiazol-2-yl]-5-[(2S)-tetrahydrofuran-2-ylmethoxy]benzamide] | 150 nM | 1310 nM | –
8 | CC(C)c1cnc(-c2cc(OC[C@@H]3CCCO3)cc(C(=O)N[C@H](C)c3cnc(C(F)(F)F)nc3)c2)s1 [Example 290, 3-[5-(propan-2-yl)-1,3-thiazol-2-yl]-5-[(2S)-tetrahydrofuran-2-ylmethoxy]-N-{(1R)-1-[2-(trifluoromethyl)pyrimidin-5-yl]ethyl}benzamide] | – | 368 nM | 31 nM
9 | CC(C)c1cnc(-c2cc(OC[C@@H]3CCOC3)cc(C(=O)N[C@H](C)c3ccc(C(F)(F)F)nn3)c2)s1 [Example 293, 3-[5-(propan-2-yl)-1,3-thiazol-2-yl]-5-[(3R)-tetrahydrofuran-3-ylmethoxy]-N-{(1R)-1-[6-(trifluoromethyl)pyridazin-3-yl]ethyl}benzamide] | 63 nM | 1160 nM | –
10 | CC(C)c1cnc(-c2cc(O[C@@H]3CCOC3)cc(C(=O)N[C@H](C)c3ccc(C(F)(F)F)nn3)c2)s1 [Example 294, 3-[5-(propan-2-yl)-1,3-thiazol-2-yl]-5-[(3R)-tetrahydrofuran-3-yloxy]-N-{(1R)-1-[6-(trifluoromethyl)pyridazin-3-yl]ethyl}benzamide] | 101 nM | 1060 nM | –
11 | CC(C)c1cnc(-c2cc(OC[C@H]3CCCO3)cc(C(=O)N[C@H](C)c3ccc(C(F)(F)F)nn3)c2)s1 [Example 299, 3-[5-(propan-2-yl)-1,3-thiazol-2-yl]-5-[(2R)-tetrahydrofuran-2-ylmethoxy]-N-{(1R)-1-[6-(trifluoromethyl)pyridazin-3-yl]ethyl}benzamide] | 37 nM | 575 nM | –
12 | C[C@@H](NC(=O)c1cc(OC[C@@H]2CCCO2)cc(-c2ncc(C3CCC3)s2)c1)c1ccc(C(F)(F)F)nn1 [Example 300, 3-(5-cyclobutyl-1,3-thiazol-2-yl)-5-[(2S)-tetrahydrofuran-2-ylmethoxy]-N-{(1R)-1-[6-(trifluoromethyl)pyridazin-3-yl]ethyl}benzamide] | 78 nM | 820 nM | –
13 | CC(C)c1cnc(-c2cc(OC[C@@H]3CCCO3)cc(C(=O)N[C@H](C)c3ccc(C(F)(F)F)nn3)c2)s1 [Example 301, 3-[5-(propan-2-yl)-1,3-thiazol-2-yl]-5-[(2S)-tetrahydrofuran-2-ylmethoxy]-N-{(1R)-1-[6-(trifluoromethyl)pyridazin-3-yl]ethyl}benzamide] | 91 nM | 1710 nM | –
14 | Cc1cnc(-c2cc(OC3CCN(CC(F)F)CC3)cc(C(=O)N[C@H](C)c3cnc(C(F)(F)F)nc3)c2)s1 [Example 304] | – | 27 nM | 7 nM
15 | Cc1ccc(CNC(=O)c2cc(OC3CCN(CC(F)F)CC3)cc(-c3ncc(C)s3)c2)nn1 [Example 307, 3-{[1-(2,2-difluoroethyl)piperidin-4-yl]oxy}-N-[(6-methylpyridazin-3-yl)methyl]-5-(5-methyl-1,3-thiazol-2-yl)benzamide] | – | 103 nM | 16 nM
16 | Cc1cnc(-c2cc(OC3CCN(CC(F)F)CC3)cc(C(=O)N[C@@H](C)c3cnc(C(F)(F)F)nc3)c2)s1 [Example 308, 3-{[1-(2,2-difluoroethyl)piperidin-4-yl]oxy}-5-(5-methyl-1,3-thiazol-2-yl)-N-{(1S)-1-[2-(trifluoromethyl)pyrimidin-5-yl]ethyl}benzamide] | 153 nM | 2590 nM | –
17 | Cc1ccc(CNC(=O)c2cc(OC3CCN(CC(F)(F)F)CC3)cc(-c3ncc(C)s3)c2)nn1 [Example 314, N-[(6-methylpyridazin-3-yl)methyl]-3-(5-methyl-1,3-thiazol-2-yl)-5-{[1-(2,2,2-trifluoroethyl)piperidin-4-yl]oxy}benzamide] | – | 192 nM | 8 nM

Continued, in another order:

Row | IC50 (human P2X3 receptor; [1]) | IC50 (human P2X2/3 receptor) | SMILES | IC50 (human P2X3 receptor)
18 | 56 nM | 933 nM | C[C@@H](NC(=O)c1cc(OC[C@@H]2CCOC2)cc(-c2ncc(C3CCC3)s2)c1)c1ccc(C(F)(F)F)nn1 [Example 297, 3-(5-cyclobutyl-1,3-thiazol-2-yl)-5-[(3R)-tetrahydrofuran-3-ylmethoxy]-N-{(1R)-1-[6-(trifluoromethyl)pyridazin-3-yl]ethyl}benzamide] | –
19 | 62 nM | 781 nM | CC(C)c1cnc(-c2cc(OC[C@H]3CCOC3)cc(C(=O)N[C@H](C)c3ccc(C(F)(F)F)nn3)c2)s1 [Example 298, 3-[5-(propan-2-yl)-1,3-thiazol-2-yl]-5-[(3S)-tetrahydrofuran-3-ylmethoxy]-N-{(1R)-1-[6-(trifluoromethyl)pyridazin-3-yl]ethyl}benzamide] | –
20 | 6 nM | 145 nM | CCc1cnc(-c2cc(OC[C@@H]3CCCO3)cc(C(=O)N[C@H](C)c3ccc(C(F)(F)F)nn3)c2)s1 [Example 302, 3-(5-ethyl-1,3-thiazol-2-yl)-5-[(2S)-tetrahydrofuran-2-ylmethoxy]-N-{(1R)-1-[6-(trifluoromethyl)pyridazin-3-yl]ethyl}benzamide] | –
21 | 9 nM | 44 nM | Cc1ccc([C@@H](C)NC(=O)c2cc(OC3CCN(CC(F)F)CC3)cc(-c3ncc(C)s3)c2)nn1 [Example 305, 3-{[1-(2,2-difluoroethyl)piperidin-4-yl]oxy}-N-[(1R)-1-(6-methylpyridazin-3-yl)ethyl]-5-(5-methyl-1,3-thiazol-2-yl)benzamide] | –
22 | 42 nM | 464 nM | Cc1cnc([C@@H](C)NC(=O)c2cc(OC3CCN(CC(F)F)CC3)cc(-c3ncc(C)s3)c2)cn1 [Example 306, 3-{[1-(2,2-difluoroethyl)piperidin-4-yl]oxy}-N-[(1R)-1-(5-methylpyrazin-2-yl)ethyl]-5-(5-methyl-1,3-thiazol-2-yl)benzamide] | –
23 | 8 nM | 70 nM | Cc1ncc([C@@H](C)NC(=O)c2cc(OC3CCN(CC(F)F)CC3)cc(-c3ncc(C)s3)c2)cn1 [Example 309, 3-{[1-(2,2-difluoroethyl)piperidin-4-yl]oxy}-N-[(1R)-1-(2-methylpyrimidin-5-yl)ethyl]-5-(5-methyl-1,3-thiazol-2-yl)benzamide] | –
24 | 8 nM | 35 nM | Cc1ccc([C@@H](C)NC(=O)c2cc(OC3CCN(CC(F)(F)F)CC3)cc(-c3ncc(C)s3)c2)nn1 [Example 311, N-[(1R)-1-(6-methylpyridazin-3-yl)ethyl]-3-(5-methyl-1,3-thiazol-2-yl)-5-{[1-(2,2,2-trifluoroethyl)piperidin-4-yl]oxy}benzamide] | –
25 | 9 nM | 83 nM | Cc1cnc(-c2cc(OC3CCN(CC(F)(F)F)CC3)cc(C(=O)N[C@H](C)c3ccc(C(F)(F)F)nn3)c2)s1 [Example 312, 3-(5-methyl-1,3-thiazol-2-yl)-5-{[1-(2,2,2-trifluoroethyl)piperidin-4-yl]oxy}-N-{(1R)-1-[6-(trifluoromethyl)pyridazin-3-yl]ethyl}benzamide] | –
26 | 11 nM | 200 nM | Cc1cnc([C@@H](C)NC(=O)c2cc(OC3CCN(CC(F)(F)F)CC3)cc(-c3ncc(C)s3)c2)cn1 [Example 313, N-[(1R)-1-(5-methylpyrazin-2-yl)ethyl]-3-(5-methyl-1,3-thiazol-2-yl)-5-{[1-(2,2,2-trifluoroethyl)piperidin-4-yl]oxy}benzamide] | –
27 | 8 nM | 160 nM | Cc1ncc([C@@H](C)NC(=O)c2cc(OC3CCN(CC(F)(F)F)CC3)cc(-c3ncc(C)s3)c2)cn1 [Example 315, N-[(1R)-1-(2-methylpyrimidin-5-yl)ethyl]-3-(5-methyl-1,3-thiazol-2-yl)-5-{[1-(2,2,2-trifluoroethyl)piperidin-4-yl]oxy}benzamide] | –
